Experimental data taken from patent publication US9115147B2, “Tricyclic derivatives and their pharmaceutical use and compositions” (Cephalon, Inc., priority 2009, dated 2015).

Target: T1, human 5-HT6 receptor (Homo sapiens, UniProt P50406)
T1 construct: host or cells: CHO-K1 cells, stably transfected; membranes prepared in house
Experiment: Human 5-HT6 Receptor Binding Assay ([3H]LSD, scintillation beads)
Conditions: Human 5-HT6 Ki app (nM), membranes of CHO-K1 cells with recombinant human 5-HT6 receptor, 4 nM [3H]LSD, Cheng-Prusoff
Description: Human 5-HT6 Receptor Binding Assay
Membranes were prepared from CHO-K1 cells stably transfected with the human 5-HT6 receptor (Euroscreen; ES-316-C). The cells were grown in Gibco Advanced DMEM-F12 (Cat#12634010) containing 2% dialyzed FBS (Hyclone Cat#SH30079.03). The cells were harvested in phosphate buffered saline (PBS) containing 0.1 mM EDTA and pelleted by centrifugation (1000×g), the supernatant was discarded and the pellets were stored at −80° C. prior to membrane preparation. Membranes were prepared as previously described (J Bio Chem. 1992, 267 (14) 9844-51). Briefly, frozen cell pellet was resuspended in a lysis buffer containing 5 mM Tris-HCl (pH 7.5), 5 mM EDTA and 1 complete EDTA-free protease inhibitor tablet (Roche Applied Science, Indianapolis, Ind.) per 50 mL buffer, and homogenized with a tissue homogenizer. The cell lysate was then centrifuged at 40,000×g for 30 min at 4° C. to collect the membranes. The membrane pellets were washed in membrane buffer (50 mM Tris-HCl (pH 7.5), 0.6 mM EDTA, 5 mM MgCl2, 1 complete EDTA-free protease inhibitor tablet per 50 mL buffer) using a tissue homogenizer. The membranes were centrifuged at 40,000×g for 30 min at 4° C. and the pellets were resuspended in membrane buffer containing 250 mM sucrose, and protein concentration was determined using the Coomassie Plus kit (Pierce Biotechnology, Rockford, Ill.).
Membranes prepared from cells expressing recombinant human 5-HT6 receptor (h5-HT6) were resuspended in assay buffer containing 50 mM Tris HCl, (pH7.4), 4 mM CaCl2, 10 μg/mL saponin, and 0.1% (w/v) ascorbic acid. Membranes were preincubated using 1.75 μg membrane protein and 0.25 mg FlashBlue scintillation beads (PerkinElmer catalogue #FB001) per well at 4° C. for 30 min. […] Test compounds or assay controls for total and non-specific binding were diluted in DMSO as 100× solutions and serially diluted by half log concentrations on a Perkin Elmer JANUS Automated Workstation. Serotonin (10 μM final concentration) was used to determine non-specific binding in the assay. Plates were read using the Microbeta Trilux 1450 LSC and luminescence counter. Data were analyzed by nonlinear […] using the dose-response equation (variable slope) to calculate IC50 in XLfit4 (ID Business Solutions Inc.): y=(Bottom+((Top−Bottom)/(1+((IC50/x)^Hill slope))))
Ki value was then calculated according to the Cheng-Prusoff method using the equation below (Cheng and Prusoff, 1973): Ki, app=IC50/(1+([radioligand]/Kd))

T1 sequence (P50406 whole entry): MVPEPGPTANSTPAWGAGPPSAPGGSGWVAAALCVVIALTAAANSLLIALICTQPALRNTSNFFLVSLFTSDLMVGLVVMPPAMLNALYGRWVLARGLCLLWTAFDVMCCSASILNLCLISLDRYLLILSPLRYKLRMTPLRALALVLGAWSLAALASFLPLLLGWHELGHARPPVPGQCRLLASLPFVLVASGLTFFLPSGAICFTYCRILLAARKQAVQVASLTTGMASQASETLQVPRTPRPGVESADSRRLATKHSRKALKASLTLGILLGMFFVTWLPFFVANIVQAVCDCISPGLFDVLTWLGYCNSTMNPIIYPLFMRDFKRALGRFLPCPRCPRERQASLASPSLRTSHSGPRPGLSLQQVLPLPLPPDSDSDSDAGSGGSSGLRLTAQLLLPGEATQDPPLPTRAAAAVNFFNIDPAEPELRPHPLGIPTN

| SMILES | Ki |
| --- | --- |
| Cc1cccc(S(=O)(=O)c2ccc3c(c2)OCC2NCCC32)n1 (single isomer, unassigned) [Example 23, 7-[(6-methylpyridin-2-yl)sulfonyl]-1,2,3,3a,4,9b-hexahydrochromeno[3,4-b]pyrrole] | < 500 nM |
| O=S(=O)(c1cncc(Br)c1)c1ccc2c(c1)OCC1NCCC21 (single isomer, unassigned) [Example 28, 7-[(5-bromopyridin-3-yl)sulfonyl]-1,2,3,3a,4,9b-hexahydrochromeno[3,4-b]pyrrole] | < 500 nM |

Same assay, conditions: actual data; membranes of CHO-K1 cells with recombinant human 5-HT6 receptor, 4 nM [3H]LSD; read-out: Human 5-HT6 Ki

| Ki | SMILES |
| --- | --- |
| 504 nM | CC(C)N1CCC2c3ccc(S(=O)(=O)c4ccccc4)cc3OCC21 (single isomer, unassigned) [Example 57, 7-(phenylsulfonyl)-3-(propan-2-yl)-1,2,3,3a,4,9b-hexahydrochromeno[3,4-b]pyrrole] |
| 221 nM | O=S(=O)(c1ccccc1)c1ccc2c(c1)OCC1C2CCN1CCO (single isomer, unassigned) [Example 97, 2-[7-(phenylsulfonyl)-1,3a,4,9b-tetrahydrochromeno[3,4-b]pyrrol-3(2H)-yl]ethanol] |

Same assay, conditions: membranes of CHO-K1 cells with recombinant human 5-HT6 receptor, 4 nM [3H]LSD, Cheng-Prusoff; read-out: Human 5-HT6 Ki app

| Ki | SMILES |
| --- | --- |
| < 500 nM | COc1cc(F)cc(S(=O)(=O)c2ccc3c(c2)OCC2NCCC32)c1 (racemic) [Example 109, 7-[(3-fluoro-5-methoxyphenyl)sulfonyl]-1,2,3,3a,4,9b-hexahydrochromeno[3,4-b]pyrrole] |
| < 500 nM | CC(C)CCCN1CCC2c3ccc(S(=O)(=O)c4ccccc4)cc3OCC21 (single isomer, unassigned) [Example 94, 3-(4-methylpentyl)-7-(phenylsulfonyl)-1,2,3,3a,4,9b-hexahydrochromeno[3,4-b]pyrrole] |
| < 500 nM | CC(C)Oc1cc(F)cc(S(=O)(=O)c2ccc3c(c2)OCC2NCCC32)c1 (single isomer, unassigned) [Example 108, 7-{[3-fluoro-5-(propan-2-yloxy)phenyl]sulfonyl}-1,2,3,3a,4,9b-hexahydrochromeno[3,4-b]pyrrole] |
| < 500 nM | O=S(=O)(c1ccc2c(c1)OCC1NCCC21)c1cccc(F)c1F (single isomer, unassigned) [Example 49, 7-[(2,3-difluorophenyl)sulfonyl]-1,2,3,3a,4,9b-hexahydrochromeno[3,4-b]pyrrole] |
| 500 to 1000 nM | CC(C)N1CCC2c3ccc(S(=O)(=O)c4ccccc4)cc3OCC21 (single isomer, unassigned) [Example 57, 7-(phenylsulfonyl)-3-(propan-2-yl)-1,2,3,3a,4,9b-hexahydrochromeno[3,4-b]pyrrole] |
| < 500 nM | O=S(=O)(c1ccccc1)c1ccc2c(c1)OCC1C2CCN1C1CCOCC1 (single isomer, unassigned) [Example 68, 7-(phenylsulfonyl)-3-(tetrahydro-2H-pyran-4-yl)-1,2,3,3a,4,9b-hexahydrochromeno[3,4-b]pyrrole] |
| < 500 nM | COCCN1CCC2c3ccc(S(=O)(=O)c4ccccc4)cc3OCC21 (single isomer, unassigned) [Example 92, 3-(2-methoxyethyl)-7-(phenylsulfonyl)-1,2,3,3a,4,9b-hexahydrochromeno[3,4-b]pyrrole] |
| < 500 nM | O=S(=O)(c1ccccc1)c1ccc2c(c1)C1CCN(C3CCC3)C1CO2 (single isomer, unassigned) [Example 89, 3-cyclobutyl-8-(phenylsulfonyl)-1,2,3,3a,4,9b-hexahydrochromeno[3,4-b]pyrrole] |
| > 1000 nM | O=S(=O)(c1ccccc1)c1ccc2c(c1)OCC1C2CCN1C1CCOCC1 (single isomer, unassigned) [Example 69, 7-(phenylsulfonyl)-3-(tetrahydro-2H-pyran-4-yl)-1,2,3,3a,4,9b-hexahydrochromeno[3,4-b]pyrrole] |
| > 1000 nM | CC(C)N1CCC2c3ccc(S(=O)(=O)c4ccccc4)cc3OCC21 (single isomer, unassigned) [Example 58, 7-(phenylsulfonyl)-3-(propan-2-yl)-1,2,3,3a,4,9b-hexahydrochromeno[3,4-b]pyrrole] |
| < 500 nM | O=S(=O)(c1ccccc1)c1ccc2c(c1)OCC1C2CCN1CCc1ccccc1 (single isomer, unassigned) [Example 96, 3-(2-phenylethyl)-7-(phenylsulfonyl)-1,2,3,3a,4,9b-hexahydrochromeno[3,4-b]pyrrole] |
| < 500 nM | CCOc1cc(F)cc(S(=O)(=O)c2ccc3c(c2)OCC2NCCC32)c1 (single isomer, unassigned) [Example 48, 7-[(3-ethoxy-5-fluorophenyl)sulfonyl]-1,2,3,3a,4,9b-hexahydrochromeno[3,4-b]pyrrole] |
| > 1000 nM | CC(C)CN1CCC2c3ccc(S(=O)(=O)c4ccccc4)cc3OCC21 (single isomer, unassigned) [Example 98, 3-(2-methylpropyl)-7-(phenylsulfonyl)-1,2,3,3a,4,9b-hexahydrochromeno[3,4-b]pyrrole] |
| < 500 nM | O=S(=O)(c1ccccc1)c1ccc2c(c1)OCC1C2CCN1CCO (single isomer, unassigned) [Example 97, 2-[7-(phenylsulfonyl)-1,3a,4,9b-tetrahydrochromeno[3,4-b]pyrrol-3(2H)-yl]ethanol] |
| < 500 nM | O=S(=O)(c1cncc(Cl)c1)c1ccc2c(c1)OCC1C2CCN1C1CCC1 (single isomer, unassigned) [Example 76, 7-[(5-chloropyridin-3-yl)sulfonyl]-3-cyclobutyl-1,2,3,3a,4,9b-hexahydrochromeno[3,4-b]pyrrole] |
| > 1000 nM | O=S(=O)(c1ccccc1)c1ccc2c(c1)OCC1C2CCN1C1CCCC1 (single isomer, unassigned) [Example 62, 3-cyclopentyl-7-(phenylsulfonyl)-1,2,3,3a,4,9b-hexahydrochromeno[3,4-b]pyrrole] |
| > 1000 nM | O=S(=O)(c1cncc(C(F)(F)F)c1)c1ccc2c(c1)OCC1C2CCN1C1CCC1 (single isomer, unassigned) [Example 87, 3-cyclobutyl-7-{[5-(trifluoromethyl)pyridin-3-yl]sulfonyl}-1,2,3,3a,4,9b-hexahydrochromeno[3,4-b]pyrrole] |

The remaining lines, values behind:

| SMILES | Ki |
| --- | --- |
| O=S(=O)(c1ccc2c(c1)OCC1NCCC21)c1cccc(F)c1F (single isomer, unassigned) [Example 41, 7-[(2,3-difluorophenyl)sulfonyl]-1,2,3,3a,4,9b-hexahydrochromeno[3,4-b]pyrrole] | < 500 nM |
| [O-][S+](c1ccccc1)c1ccc2c(c1)OCC1NCCC21 (racemic) [Example 26, 7-(Phenylsulfinyl)-1,2,3,3a,4,9b-hexahydrochromeno[3,4-b]pyrrole] | > 1000 nM |
| O=S(=O)(c1cccc(OC(F)(F)F)c1)c1ccc2c(c1)OCC1NCCC21 (single isomer, unassigned) [Example 7, 7-{[3-(trifluoromethoxy)phenyl]sulfonyl}-1,2,3,3a,4,9b-hexahydrochromeno[3,4-b]pyrrole] | < 500 nM |
| O=S(=O)(c1cc(F)cc(F)c1)c1ccc2c(c1)OCC1NCCC21 (single isomer, unassigned) [Example 14, 7-[(3,5-difluorophenyl)sulfonyl]-1,2,3,3a,4,9b-hexahydrochromeno[3,4-b]pyrrole] | < 500 nM |
| O=S(=O)(c1ccc2c(c1)OCC1NCCC21)c1cccc2c1CCO2 (single isomer, unassigned) [Example 37, 7-(2,3-dihydro-1-benzofuran-4-ylsulfonyl)-1,2,3,3a,4,9b-hexahydrochromeno[3,4-b]pyrrole] | < 500 nM |
| O=S(=O)(c1ccc2c(c1)OCC1NCCC21)c1cccc2ccccc12 (single isomer, unassigned) [Example 19, 7-(naphthalen-1-ylsulfonyl)-1,2,3,3a,4,9b-hexahydrochromeno[3,4-b]pyrrole] | < 500 nM |
| O=S(=O)(c1ccc2c(c1)OCC1NCCC21)c1cccc2ccccc12 (single isomer, unassigned) [Example 20, 7-(naphthalen-1-ylsulfonyl)-1,2,3,3a,4,9b-hexahydrochromeno[3,4-b]pyrrole] | < 500 nM |
| CC(C)COc1cc(F)cc(S(=O)(=O)c2ccc3c(c2)OCC2NCCC32)c1 (single isomer, unassigned) [Example 47, 7-{[3-fluoro-5-(2-methylpropoxy)phenyl]sulfonyl}-1,2,3,3a,4,9b-hexahydrochromeno[3,4-b]pyrrole] | < 500 nM |
| CCOc1cc(F)cc(S(=O)(=O)c2ccc3c(c2)OCC2NCCC32)c1 (single isomer, unassigned) [Example 40, 7-[(3-ethoxy-5-fluorophenyl)sulfonyl]-1,2,3,3a,4,9b-hexahydrochromeno[3,4-b]pyrrole] | < 500 nM |
| CC(C)COc1cc(F)cc(S(=O)(=O)c2ccc3c(c2)OCC2NCCC32)c1 (single isomer, unassigned) [Example 39, 7-{[3-fluoro-5-(2-methylpropoxy)phenyl]sulfonyl}-1,2,3,3a,4,9b-hexahydrochromeno[3,4-b]pyrrole] | < 500 nM |
